According to patent US9198915B2, “Methods involving aldose reductase inhibitors” (The Board of Regents of The University of Texas System, priority 2007, dated 2015):

System: NF-κB and AP-1
Test: RW-induced NF-κB and AP-1 activation in SAEC (EMSA)
Assay type: cell-based, human
Description: The SAEC were pretreated with or without AR inhibitors for 24 h in starving medium, followed by treatment with Ragweed pollens (RW) (50 μg/ml) for 2 h at 37° C. The nuclear extracts were prepared as described. Briefly, SAEC were harvested and washed with cold PBS and suspended in 0.1 ml of hypotonic lysis buffer containing protease inhibitors for 10 min. The cells were then lysed with 5 μl of 10% Nonidet P-40. The homogenate was centrifuged (6000 rpm; 1 min.), and supernatant containing the cytoplasmic extracts was stored frozen at −80° C. The nuclear pellet was resuspended in 50 μl ice-cold nuclear extraction buffer. After 30 min of intermittent mixing, the extract was centrifuged (12000 rpm; 15 min.), and supernatants containing nuclear extracts were secured. The protein content was measured by the Bradford method. If they were not used immediately, they were stored at −80° C. The Consensus oligonucleotides for NF-κB and AP-1 transcription factors were 5′-end labeled using T4 polynucleotide kinase. EMSA was performed as described. The specificity of the assay was examined by competition with an excess of unlabeled oligonucleotide and supershift assays with antibodies to p65.

SMILES: O=C(O)Cc1nn(Cc2nc3cc(C(F)(F)F)ccc3s2)c(=O)c2ccccc12 [zopolrestat]
- prevention of RW-induced NF-κB activation and nuclear translocation (RW 50 μg/ml): > 80%
- basal NF-κB activity, compound alone (no RW): did not affect
